Assay results published in patent US20070232575A1, “Treatment of Pulmonary Artery Hypertension with Dhea, Dheas, Dhea Analogs, or Dhea Derivatives” (priority 2004, published 2007).
“Also recorded” adds a separate entry of the source.

What was measured:
[1] = tested on: systemic circulation; assay: Systemic circulation and cardiac function (systemic blood pressure, heart rate, cardiac output)
Protocol: To determine the effect of the chronic hypoxia treatment-induced CH-PAH and to determine the effect of DHEA administration on PAP, the following PAP measurement method was used. Rats were anaesthetized with ketamine 50 mg/kg and xylazine 10 mg/kg by i.p. injection. Mean PAP was measured with 2.5-F catheters inserted into the right jugular vein in closed-chest rats (Bonnet, S., et al. (2002) Cardiovasc. Res. 53, 1019-1028, which is incorporated by reference herein in its entirety). The effect of DHEA on the systemic blood pressure was controlled by another catheter placed into the left carotid artery. Throughout all the experiments, heart rate and oxygen saturation were monitored. Acute hypoxic stress with fraction of inspired O2 of 10% were applied by administration of an air plus nitrogen gas mixture. The fraction of inspired O2 was monitored with an oxygen analyzer (Servomex, Crowborough, Great Britain), and the effects on the PAP were measured over a 10-15 minute period.
Echocardiography measurements were also performed to determine differences between the treated and control rats. To perform this procedure, the rats were first anaesthetized. After thorax epilation, the animals were placed in the left lateral decubitus position. Resting echocardiography measurements were performed at ambient conditions by using a SONOS 5500 (Philips) echocardiograph and a 12-MHz sector scare transducer. Right and left ventricle wall thickness was measured on M-mode tracings following the recommendations of the American Society of Echocardiology as described by Jones et al. ((2002) Am. J. Physiol. 283, H364-H371). Right cardiac output was evaluated by measuring the electrical R-R delay, the PA diameter, and the velocity time integral (VTI) of PA flux.

[2] = tested on: PASMCs; assay: Resting [Ca2+]i of PASMCs from orally DHEA-treated CH rats (indo-1); assay type: in vivo, rat; conditions: for effect on [Ca2+]i of PASMCs: CH rats
Protocol: The heart and lungs were removed and intrapulmonary arteries (IPAs) (150-300 μm of internal diameter) were then dissected. The adventitial and intimal layers were removed. For contraction experiments, rings (3 mm in length) were prepared.
As mentioned earlier, Ca^2+ is thought to play an important role in the response to chronic hypoxia. To measure the effects of DHEA on [Ca^2+]i of individual PASMCs, a [Ca^2+]i-sensitive fluorophore, indo-1 (Calbiochem, San Diego, Calif.), was employed. PASMCs were loaded with indo-1 by incubation in physiological salt solution (139.6 mM NaCl/6.2 mM KCl/1 mM MgCl2/12.1 mM glucose/10 mM Hepes) containing 1 μM indo-1 penta-acetoxymethyl ester (Indo-1 a.m.) for 25 minutes at room temperature. The recording system included a Nikon Diaphot inverted microscope fitted with epifluorescence. The studied cell was illuminated at 360 nm and counted simultaneously at 405 nm and 480 nm by two photomultipliers (P100, Nikon). […] [Ca^2+]i was estimated from the 405:480 ratio (Bonnet, S., et al. (2001) Am. J. Physiol. 281, L193-L201).

[3] = biological target: T1, BKCa (Homo sapiens, UniProt Q12791); conditions: hypoxic human pulmonary cells, Peng et al. 1999; cited from earlier work
T1 construct: host or cells: hypoxic human pulmonary cells

[4] = one week oral DHEA treatment in CH rats

T1 sequence (Q12791 whole entry): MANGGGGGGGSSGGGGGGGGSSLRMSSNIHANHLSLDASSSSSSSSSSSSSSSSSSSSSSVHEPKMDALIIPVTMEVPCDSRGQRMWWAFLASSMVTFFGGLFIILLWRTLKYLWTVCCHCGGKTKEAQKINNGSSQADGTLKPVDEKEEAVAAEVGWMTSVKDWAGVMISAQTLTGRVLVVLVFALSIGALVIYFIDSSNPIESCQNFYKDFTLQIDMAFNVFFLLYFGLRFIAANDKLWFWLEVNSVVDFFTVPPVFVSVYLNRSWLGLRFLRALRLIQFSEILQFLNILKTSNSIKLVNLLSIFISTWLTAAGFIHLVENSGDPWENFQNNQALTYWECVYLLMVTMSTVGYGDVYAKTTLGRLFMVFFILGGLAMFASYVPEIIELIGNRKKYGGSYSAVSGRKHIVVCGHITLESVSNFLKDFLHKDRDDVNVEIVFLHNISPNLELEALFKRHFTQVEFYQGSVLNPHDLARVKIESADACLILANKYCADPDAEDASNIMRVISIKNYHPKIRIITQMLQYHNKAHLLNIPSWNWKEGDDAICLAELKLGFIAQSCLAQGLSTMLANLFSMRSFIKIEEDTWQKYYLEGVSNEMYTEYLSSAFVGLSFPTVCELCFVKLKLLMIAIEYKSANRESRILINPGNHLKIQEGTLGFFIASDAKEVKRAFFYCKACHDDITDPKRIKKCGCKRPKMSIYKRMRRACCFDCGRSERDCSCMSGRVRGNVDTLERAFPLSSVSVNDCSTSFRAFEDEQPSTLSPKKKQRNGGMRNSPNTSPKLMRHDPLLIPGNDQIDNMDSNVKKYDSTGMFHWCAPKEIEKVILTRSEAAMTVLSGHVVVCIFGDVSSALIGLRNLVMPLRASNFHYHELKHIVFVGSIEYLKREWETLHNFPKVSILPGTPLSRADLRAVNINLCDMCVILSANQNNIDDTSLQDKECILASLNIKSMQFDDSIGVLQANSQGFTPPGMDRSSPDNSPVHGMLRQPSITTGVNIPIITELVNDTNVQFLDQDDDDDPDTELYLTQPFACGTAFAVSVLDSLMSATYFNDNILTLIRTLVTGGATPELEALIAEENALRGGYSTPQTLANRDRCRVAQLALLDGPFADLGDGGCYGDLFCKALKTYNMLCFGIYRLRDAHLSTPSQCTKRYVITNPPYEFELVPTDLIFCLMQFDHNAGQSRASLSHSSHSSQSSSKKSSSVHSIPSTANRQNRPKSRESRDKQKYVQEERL

SMILES: C[C@]12CC[C@H](O)CC1=CC[C@@H]1[C@@H]2CC[C@]2(C)C(=O)CC[C@@H]12 [DHEA, dehydroepiandrosterone]
- cardiac output [1, 4]: did not affect
- heart rate [1, 4]: did not affect
- systemic pressure [1, 4]: did not affect
- cardiac output ([1]; oral DHEA 3 weeks): No significant changes
- heart rate ([1]; oral DHEA 3 weeks): No significant changes
- cardiac function ([1]; oral DHEA 3 weeks, CH-DHEA rats (FIG. 1 D and E)): did not affect
- systemic blood pressure / systemic circulation ([1]; oral DHEA 3 weeks, control, DHEA treated and untreated groups): No significant changes; also recorded: did not affect
- resting [Ca2+]i value of PASMCs ([2]; CH-DHEA rats (3 wk oral DHEA), CH 143±7, control 69.2±2.2): 90.1 ± 3.2 nM
- resting [Ca2+]i value of PASMCs ([2]; DHEA from day 15 to day 21 of chronic hypoxia, untreated 143±7): 105 ± 3 nM
- effect on [Ca2+]i of PASMCs ([2]; oral DHEA for 1 week): significant decrease; also recorded: decrease in [Ca^2+]i
- effect on [Ca2+]i of PASMCs ([2]; oral DHEA for 3 weeks): significant decrease; also recorded: decrease in [Ca^2+]i
- action on BKCa [3]: BKCa opener
